Test results from patent US7252957B2, “Identification of etiology of autism” (Immunosciences Lab., Inc., priority 2004, dated 2007).

What was measured:
CD69 = target: T1, CD69 (Homo sapiens, UniProt Q07108); assay: ELISA: binding of gliadin, casein peptides, SK and ethyl mercury to CD69 (inhibition of anti-CD69 binding); settings: for % Binding of Gliadin, Casein, Streptokinase, or Mercury to CD26 and CD69: CD69 coated wells, % inhibition of anti-CD69 binding to CD69; for ELISA O.D. at 492 nm: microwell coated with CD69 + competing antigen, peroxidase labeled rabbit anti-CD69
T1 construct: purchased Bio-Synthesis Inc. (Lewisville, Tex.); host or cells: chemical synthesis
Method: (§1) Plates were incubated for one hour at 37° C. and washed five times for removal of unbound competing antigens. […] After proper incubation and washing, binding of these peptides and proteins to CD26 and CD69 was measured by addition of peroxidase substrate and measurement of color development at 492 nm.

CD26 = assay: ELISA: binding of gliadin, casein peptides, SK and ethyl mercury to CD26 (inhibition of anti-CD26 binding); settings: for % Binding of Gliadin, Casein, Streptokinase, or Mercury to CD26 and CD69: CD26 coated wells, % inhibition in binding of anti-CD26 to CD26; for ELISA O.D. at 492 nm: microwell coated with CD26 + competing antigen, peroxidase labeled rabbit anti-CD26
Method: as §1

[1] = target: CD69 antibody binding epitope … (human); assay: competition ELISA, CD69-coated wells, read with peroxidase labeled rabbit anti-CD69

Molecule | % Binding of Gliadin, Casein, Streptokinase, or Mercury to CD26 and CD69 (CD69) [%] | ELISA O.D. at 492 nm (CD69) [O.D.] | % Binding of Gliadin, Casein, Streptokinase, or Mercury to CD26 and CD69 (CD26) [%] | ELISA O.D. at 492 nm (CD26) [O.D.] | % Binding of Gliadin, Casein, Streptokinase, or Mercury to CD26 and CD69 (% inhibition of anti-CD69 binding) [1] [%]
Casein | 28 | 1.45 | 44 | 1.34 | 
streptokinase [SK] | 86 | 0.48 | 77 | 0.72 | 
Streptokinase (SK), P00779 27-440 (protein) IAGPEWLLDRPSVNNSQLVVSVAGTVEGTNQDISLKFFEIDLTSRPAHGGKTEQGLSPKSKPFATDSGAMSHKLEKADLLKAIQEQLIANVHSNDDYFEVIDFASDATITDRNGKVYFADKDGSVTLPTQPVQEFLLSGHVRVRPYKEKPIQNQAKSVDVEYTVQFTPLNPDDDFRPGLKDTKLLKTLAIGDTITSQELLAQAQSILNKNHPGYTIYERDSSIVTHDNDIFRTILPMDQEFTYRVKNREQAYRINKKSGLNEEINNTDLISEKYYVLKKGEKPYDPFDRSHLKLFTIKYVDVDTNELLKSEQLLTASERNLDFRDLYDPRDKAKLLYNNLDAFGIMDYTLTGKVEDNHDDTNRIITVYMGKRPEGENASYHLAYDKDRYTEEEREVYSYLRYTGTPIPDNPNDK |  |  |  |  | 86
